{
  "source": "patent US8557875B2",
  "about": "“Gene transfer agent composition containing polyamidoamine dendron” (Public University Corporation Osaka Prefecture University, priority 2009, dated 2013)",
  "key": {"NHDF-ad cells [1]": {"test_system": "NHDF-ad cells", "assay": "Toxicity evaluation, WST-8 kit (Example 6)", "type": "cell-based, human", "conditions": "WST-8, 48 hours", "method": "(NHDF-ad cells: 3.5×10^3 cells/well·DMEM+10% FBS (Pe/St) 70 μl)\n(i) A 20 mM Tris-HCl (pH 7.4) buffer was dispensed into two tubes at, individually, 54.25 μl (for DL-G1) and 35.5 μl (for DL-U2).\n(ii) 1.0 μg of plasmid DNA (pEGFP-luc+) was added to each of the two tubes prepared in step (i) at 2 μl (1.0 μg), and the contents were stirred.\n(iii) To the prepared plasmid DNA solutions was added 37.5 μl of a DL-U2 liposome solution (N/P ratio=6), and the whole was thoroughly mixed using a vortex and incubated at room temperature for 30 minutes.\n(iv) 25 μl of an Opti-MEM(R) I Reduced-Serum Medium was further added, and the whole was thoroughly mixed and allowed to stand at room temperature for 5 minutes.\n(v) 2.8 and 7.0 μl per well of the DL-plasmid DNA complex solutions was individually added to three wells, and the contents were mixed (the addition amount was one-seventh the addition amount in the luciferase activity measurement).\n(vi) The cells were incubated at 37° C. in 5% CO2 for 4 hours, and the growth medium was replaced.\n(vii) 48 hours later, toxicity evaluation was performed according to the protocol of a WST-8 kit (Kishida Chemical Co., Ltd.) (a well to which no lipoplex solution was added was defined as 100%). […]"}, "NHDF-ad cells [2]": {"test_system": "NHDF-ad cells", "assay": "Gene transfer (GFP expression, luciferase activity) versus commercial agents (Example 6)", "type": "cell-based, human", "conditions": "single transfection, 48 hours", "method": "pEGFP-C1 expressing a green fluorescent protein was used as a gene transfer plasmid; and NHDF-ad cells, which were normal […] cells derived from adult humans and also used for the production of iPS cells, were used as target cells. Lipoplexes were individually prepared using DL-U2. Then, gene transfer was performed.\n(NHDF-ad cells: 2.5×10^4 cells/well·DMEM+10% FBS (Pe/St) 500 μl)\n(i) A 20 mM Tris-HCl (pH 7.4) buffer was dispensed into two tubes at, individually, 56.3 μl (for NP ratio=3) and 37.5 μl (for NP ratio=6).\n(ii) 1.0 μg of plasmid DNA (pCAG-GFP) was added to each of the two tubes prepared in step (i) at 2 μl (1.0 μg), and the contents were stirred. […]\n(vii) 48 hours later, luciferase activity was measured according to the protocol of the luciferase assay system (Promega, E1501).\nLipofectamine LTX: Gene transfer was performed according to the protocol, and luciferase activity was measured according to the protocol of the luciferase assay system (Promega, E1501).\nFuGENE HD: Gene transfer was performed according to the protocol, and luciferase activity was measured according to the protocol of the luciferase assay system (Promega, E1501).\nFuGENE6: Gene transfer was performed according to the protocol, and luciferase activity was measured according to the protocol of the luciferase assay system (Promega, E1501)."}, "NHDF-ad cells [3]": {"test_system": "NHDF-ad cells", "assay": "Flow cytometry of GFP fluorescence in treated cells", "type": "cell-based, human"}, "various types of cells": {"test_system": "various types of cells", "assay": "Transfection of various cell strains, GFP expression (Example 8)", "type": "cell-based", "conditions": "COS7, HeLa-S3, A549, U2OS, SKOV3, Balb3T3, CHO, Jurkat, K562; 48 hours", "method": "4 hours after the addition, the medium was replaced (however, the medium was not replaced for Jurkat, K562). […] It should be noted that experimental conditions not described in the table conformed to those of the other examples."}, "HeLa-S3": {"test_system": "HeLa-S3", "assay": "Cytotoxic evaluation on gene transfer (Example 5)", "type": "cell-based", "conditions": "compared with Lipofectamine LTX and FuGENE HD"}},
  "data": [
    {"compound": "CCCCCCCC/C=C\\CCCCCCCCN(CCCCCCCC/C=C\\CCCCCCCC)CCC(=O)NCCN(CCC(=O)NCCN)CCC(=O)NCCN", "note": "(racemic) [DL-G1-U2]", "values": [
      {"measurement": "cytotoxicity on GFP gene transfer", "setting": "NHDF-ad cells [1]", "value": "lower than those of most of the commercially available transfer agents"},
      {"measurement": "gene transfer (GFP gene) efficiency", "setting": "NHDF-ad cells [2]", "value": "allowed the gene to be transferred into the cells at a remarkably high frequency"},
      {"measurement": "fluorescence intensity of GFP expressed in the cells compared with DL-G1", "setting": "NHDF-ad cells [3]", "value": "about ten times higher"},
      {"measurement": "gene transfer into various types of cells", "setting": "various types of cells", "value": "allowed the gene to be efficiently transferred"},
      {"measurement": "cytotoxicity", "setting": "HeLa-S3", "value": "lower cytotoxicity"}
    ]}
  ]
}
